Experimental data as given in patent US7759087B1, “Method of indefinite culture of hepatitis C virus” (priority 2005, dated 2010).

How the values were obtained:
[1] = system: HCV replicon (NS5A-GFP) in GS4 cells; assay: GFP-based flow cytometry assay for HCV replication (NS5A-GFP expression in GS4 replicon cells); format: cell-based, hepatitis C virus; details: for mean intensity of the GFP and percentage of GFP-positive cells: 100 units/ml IFN, 1 μM 2CMA, 2 μg/ml Cs A
Description: (§1) Flow cytometry and cell cycle analysis. Cells were routinely fixed in 2% paraformaldehyde before flow cytometry analysis, which was performed with a FACSCanto flow cytometer (BD Biosciences). Live cell sorting was performed under sterile conditions with a FACSAria flow cytometer (BD Biosciences). The approximately 5% of cells (2×10^7 cells total) with the strongest GFP signal were sorted back for expansion at each round of live-cell sorting. For cell-cycle analysis, 1×10^6 cells were stained with 50 μg/ml propidium iodide in the presence of 200 μg/ml RNase A and 0.1% Triton X-100 for 30 minutes before being subjected to FACS analysis.
A novel GFP-based flow cytometry assay for HCV replication. Recently, a modified HCV replicon with the eGFP gene inserted into the coding region of NS5A has been generated for study of the subcellular localization of the HCV replication complex (16). […] When we subjected I/5A-GFP cells to flow-cytometry analysis, we found the GFP signal of the majority (˜70%) of the cells to be indistinguishable from that of Clone B, a replicon cell line without GFP but containing the same S2204I mutation in the NS5A gene (1) (FIG. 1). To obtain a cell line with minimal FACS-profile overlap with the GFP-negative replicon cells, we then performed consecutive rounds of cell sorting on I/5A-GFP-6 cells in which the cells with the strongest GFP were recovered. A population with no greater than 15% GFP-negative cells was obtained after four rounds of sorting and was used for the present study. We designated these cells GS4 (FIG. 1).
The GFP signal of these cells was then analyzed by flow cytometry 4 days after treatment with increasing amounts of inhibitors, including Interferon-α (IFN-α), 2′-Cmethyl-adenosine (2CMA), and Cyclosporin A (Cs A). […] The […] (0.25 μM for 2CMA, 0.5 μg/ml for CsA, and 10-25 units/ml for IFN-α) obtained with this assay closely resemble results from previous studies where HCV RNA level was measured (2, 6, 19, 26).

[2] = system: HCV replicon (NS5A-GFP) in GS4 cells; assay: Recovery of NS5A-GFP expression at 37° C. after 39° C. treatment of GS4 cells; format: cell-based, hepatitis C virus; details: 4 days recovery at 37° C.; 100 units/ml IFN-a, 10 μg/ml aphidicolin
Description: To eliminate the possibility that these growth-arrest treatments somehow stabilize the GFP and maintain it throughout the treatment, we took advantage of our finding that 39° C. treatment results in reversible inhibition of HCV replication in our assay. We first eliminated the GFP signal from GS4 cells by incubating them at 39° C. for 4 days and then transferred the cells back to 37° C. so that HCV replication could recover. […] We tested aphidicolin and serum starvation using this assay along with IFN-α.

GS4 cells = assay: Cell-cycle analysis by propidium iodide staining; format: cell-based; details: 4 days, 10 μg/ml shown
Description: as §1
Failure of growth arrest to inhibit replicon expression prompted us to examine the effect of cell-cycle perturbation on replicon expression. Propidium iodide (PI) staining of the cells permitted acquisition of dual fluorescence FACS profiles showing the cell-cycle distribution of GFP-positive and -negative cells. We found no correlation between positive GFP signal and any of the cell-cycle stages in the cycling cells (FIG. 12, no treatment). Incubation at 39° C. inhibited NS5A-GFP expression without any effect on cell-cycle profile. […] Even though confluency also affected cell cycle to a certain degree, its effect on cell-cycle progress was far less dramatic than that of aphidicolin.

HCV RNA in GS4 cells = assay: Northern analysis of HCV RNA in GS4 cells; format: cell-based, hepatitis C virus; details: 3 days, 1 μM 2CMA, 10 μg/ml aphidicolin
Description: RNA extraction and northern blots. Total RNA was extracted with TRIzol reagent (Invitrogen, San Diego, Calif.). Equal amounts of RNA (10 μg per sample) were loaded onto formaldehyde-containing agarose gels for electrophoresis. The transfer of RNA onto a nitrocellulose membrane, random labeling of a radioactive probe, and hybridization were all performed according to standard molecular-biology protocols. The probe for detecting HCV RNA is a cDNA fragment that corresponds to nucleotides 8024 to 9563 of HCV 1 b. The exposure and detection of the radioactive signal was done with a Storm 860 phosphor-imaging system (Amersham/GE Healthcare).
To validate our results at the viral RNA level, we repeated the inhibition and rescue experiments and directly examined HCV RNA by northern blotting. GS4 cells were treated with various inhibitors/agents for 3 days before the total RNAs were subjected to northern analysis for HCV RNA.

[3] = system: HCV replicon (wild-type NS5A) in Huh.8 cells; assay: Western blot for NS5A expression in Huh.8 replicon cells; format: cell-based, hepatitis C virus; details: 4 days, 1 μM 2CMA, 10 μg/ml aphidicolin
Description: Antibodies and western blots. An anti-NS5A monoclonal antibody was purchased from Virogen (Boston, Mass.) and an anti-Ku86 monoclonal antibody from Sigma. A monoclonal antibody against GFP was obtained from Clontech/BD Biosciences. To detect membrane-associated HCV proteins, we directly lysed the replicon cells in SDS PAGE sample buffer. We used 2×10^5 cells per 160 μl of SDS PAGE sample buffer for all our western blotting experiments. Blotting and detection were all performed according to standard procedures. For detection of Ku86 signal, the membrane was first stripped of the NS5A signal by incubation in stripping buffer (100 mM 2mercaptoethanol, 2% SDS, 62.5 mM Tris-HCl, pH 6.7) for 30 minutes at 50° C.
Additional experiments with a replicon cell line containing a wild type HCV sequence. […] Huh.8 is replicon cell line that contains the wild-type sequence of NS5A (1). Huh.8 cells were cultured under various conditions for 4 days before being analyzed by western blot for NS5A expression. […] Serum starvation actually appeared to have increased NS5A expression, as it did with the GS4 cells (FIG. 8 and data not shown).

[4] = system: full-length HCV RNA based on the genotype 1b HCV-N; details: reference 22; cited from earlier work
HCV replicon = details: reference 17; cited from earlier work

C[C@@]1(CO)[C@H](O)CC[C@@]2(C)[C@H]1CC[C@H]1C[C@@H]3C[C@@]12CC[C@]3(O)CO [aphidicolin]
effect on NS5A-GFP expression ([1]; 5 to 20 μg/ml, GS4 cells, 4 days): failed to affect NS5A-GFP expression significantly | recovery of NS5A-GFP expression after 39° C. treatment [2]: did not prevent the resumption of HCV replication | cell-cycle arrest (GS4 cells): effectively arrested cell cycle at the G1/S transition | HCV RNA signal (northern blotting) (HCV RNA in GS4 cells): only had a minimal effect | NS5A expression (western blot) [3]: did not inhibit HCV expression | abundance of HCV RNA or protein [4]: had no effect | effect on HCV replicon (HCV replicon): inhibitory effect

TGF-β
effect on HCV RNA replication or protein expression ([1]; our system, data not shown): only a marginal effect

Interferon-α [IFN-α]
mean intensity of the GFP and percentage of GFP-positive cells ([1]; GS4 cells, 4 days): effectively lowered | recovery of NS5A-GFP expression after 39° C. treatment [2]: efficiently blocked the recovery of the NS5A-GFP expression

C[C@@]1(O)[C@H](O)[C@@H](CO)O[C@H]1n1cnc2c(N)ncnc21 [2CMA, 2′-C-methyl-adenosine]
mean intensity of the GFP and percentage of GFP-positive cells ([1]; GS4 cells, 4 days): effectively lowered | IC50 ([1]; Hepatitis C virus, 96 h, GS4 cells, 4 days treatment, flow cytometry, read-out: 1050 (NS5A-GFP expression)): 0.25 µM | HCV RNA signal (northern blotting) (HCV RNA in GS4 cells): effectively eliminated HCV RNA signal | NS5A expression (western blot) [3]: effectively eliminated any NS5A expression
